Values quoted from earlier work, collected in patent publication US20060200870A1, “Methods of treating muscular dystrophy” (priority 2004, published 2006).
“Also recorded” adds a separate entry of the source.

Tests used:
[1] = test system: derangements or deficiencies in AGAT activity; conditions: oral creatine
humans with DMD = conditions: humans (males) with DMD
patients with DMD = conditions: 0.75 mg/kg in intermittent regimens

Row | Structure (SMILES) | benefit of oral creatine supplementation (mdx mice) | success in overcoming derangements or deficiencies in AGAT activity [1] | benefit / therapeutic effect of oral creatine supplementation (humans with DMD) | independent ambulation (patients with DMD; some patients) | adverse side-effects (patients with DMD; weight-gain, osteopenia, hirsutism, cushingoid facies, behavioral and endocrinology-related issues)
1 | CN(CC(=O)O)C(=N)N [creatine] | some benefits | partially successful | no such clear benefit; also recorded: has not been shown to have a significant therapeutic effect | – | –
2 | C[C@]12C=CC(=O)C=C1CC[C@@H]1[C@@H]2C(=O)C[C@@]2(C)[C@H]1CC[C@]2(O)C(=O)CO [prednisone] | – | – | – | can help prolong independent ambulation | significant adverse side-effects
